The target of one data set is T1, human leukocyte elastase (Homo sapiens, UniProt P08246).
T1 construct: purchased Sigma E8140
T1 sequence (P08246 30-247 limits assumed): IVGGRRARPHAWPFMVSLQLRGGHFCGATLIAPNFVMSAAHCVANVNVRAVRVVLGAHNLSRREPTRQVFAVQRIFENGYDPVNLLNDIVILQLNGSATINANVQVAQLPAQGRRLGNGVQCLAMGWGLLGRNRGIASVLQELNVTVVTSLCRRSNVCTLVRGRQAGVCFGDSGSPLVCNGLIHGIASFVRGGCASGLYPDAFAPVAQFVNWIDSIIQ
Briefly: Enzyme inhibition assay using fluorescent peptide substrate. In kind it is biochemical. Particulars: MeO-Suc-Ala-Ala-Pro-ValAMC substrate 100 μM, free base, means of two independent experiments. As to the method: Using Fluorescent Peptide Substrate
Assays were performed in 96-well plates at a total assay volume of 100 μl. The final concentration of the enzyme (human leukocyte elastase, Sigma E8140) was 0.00036 units/well. A peptide substrate (MeO-Suc-Ala-Ala-Pro-ValAMC (SEQ ID NO: 1), Calbiochem #324745) was used, at the final concentration of 100 μM. The final concentration of DMSO was 1% in the assay buffer (0.05M Tris.HCl, pH 7.5, 0.1M NaCl; 0.1M CaCl2; 0.0005% brij-35).
The enzymatic reaction was started by adding the enzyme. The enzymatic reaction was performed at RT and after 30 mins stopped by adding 50 μl soybean trypsin inhibitor (Sigma T-9003) at a final concentration of 50 μg/well. Fluorescence was read on the FLEXstation (Molecular Devices) using 380 nm excitation and 460 nm emission filters. […] The results are means of two independent experiments, each performed in duplicate.
The results are means of two independent experiments, each performed in duplicate.

The subject of data set [1] is HNE Induced Lung Haemorrhage in the Rat. Briefly: HNE induced lung haemorrhage in the rat. It counts as in vivo. Conditions: 100 μg/kg i.t., 6 hours prior to HNE, free base, statistically significant. From the text:
HNE Induced Lung Haemorrhage in the Rat
Instillation of human neutrophil elastase (HNE) into rat lung causes acute lung damage. The extent of this injury can be assessed by measuring lung haemorrhage.
Male Sprague Dawley rats (175-220 g) were obtained from Harlan UK Ltd., full barrier-bred and certified free from specified micro-organisms on receipt. Animals were weighed and randomly assigned to treatment groups (7-12 animals to per group).
The vehicle used was 1% DMSO/Saline. Inhibitors were dissolved in 1% DMSO before the addition of 0.9% saline.
Animals in each study used to determine the efficacy of the elastase inhibitors delivered locally to the lung by a variety of routes. […]
Once defrosted 100 μl of each lysed cell suspension was placed into a separate well of a 96 well flat bottomed plate. […] The OD of the contents of each well was measured at 415 nm using a spectramax 250 (Molecular devices). […]
The amount of blood in each experimental sample was calculated by comparison to the standard curve. Data were then analysed as below: • 1) The mean OD for duplicates was calculated • 2) The value for the blank was subtracted from the value for all other samples • 3) Data were assessed to evaluate the normality of distribution.

Data set [2] is described as follows: PK assay: half life in the lung after intra-tracheal administration. It counts as in vivo. Conditions: rat, other: intra-tracheal, 10 ug/kg; male Sprague-Dawley rats, single intra-tracheal dose 10 μg/Kg, lung homogenate; free base; read-out: terminal lung t1/2 (converted). The protocol:
Comparison of the Half Lives in the Lung of the Compound of the Invention and the Compound of Example 18 of WO2007/129060
Test material was formulated at 20 μg/mL in 0.2% Tween 80 in saline. Solutions were sonicated and warmed in a water bath at 40° C. prior to dosing. Male Sprague-Dawley rats received a single intra-tracheal administration of the test material via a Penn-Century dosing needle at the nominal dose level of 10 μg/Kg. After dosing five rats from each group were terminally anaesthetized with sodium pentobarbitone at 1, 2, 4, 8, 24, 72 and 96 hours for compound (IA) (free base) and 1, 4, 8, 24, 72, 96, 168, 264 and 336 for compound (II) (free base) post dose. Blood was sampled from the tail vein, following which the chest was opened, the animal exanguinated by perfusion and the lungs removed and snap frozen. After collection the blood samples were centrifuged (10000×g, 2 min at 4° C.). Plasma was removed and both stored frozen at −20° C. Rat lungs were homogenised in water (on ice) to give a ratio of 1 part lung:2 parts water (w/v). A 100 μL aliquot of each homogenate was extracted by addition of 200 μL acetonitrile containing an analytical internal standard. […]
Test material was analysed on a triple quadrupole mass spectrometer (AB Sciex API 3000) fitted with LC pump and autosampler (Reliance). Test material was detected in positive ion mode Turbo Ion Spray. […]

Each structure is given as a SMILES string.

The source of these data is US8455505B2, “Pyrrolopyrimidinedione and its therapeutic use” (Chiesi Farmaceutici S.p.A., priority 2009, dated 2013).

In the case of `N#Cc1ccc([C@H]2NC(=O)N(c3cccc(C(F)(F)F)c3)C3=C2C(=O)N(CCCNCCCN2CC4=C(C2=O)[C@@H](c2ccc(C#N)cc2)NC(=O)N4c2cccc(C(F)(F)F)c2)C3)cc1` [Compound (II)], on human leukocyte elastase, the IC50 worked out at 2.1 nM. Further, the “reduction in haemorrhage relative to control” value in data set [1] is recorded as 88%. The half-life in data set [2] is 94 h.

Regarding `N#Cc1ccc([C@H]2NC(=O)N(c3cccc(C(F)(F)F)c3)C3=C2C(=O)N(CCCNCCCN2CC4=C(C2=O)[C@@H](c2ccc(C#N)nc2)NC(=O)N4c2cccc(C(F)(F)F)c2)C3)cn1` [Compound (IA)], at human leukocyte elastase, the IC50 came to 8.4 nM. Besides, the “reduction in haemorrhage relative to control” value in data set [1] was found to be 95%. Further, the half-life in data set [2] is 37 h.
